Results as given in US5512553A, “7-(substituted)-8-(substituted)-9-(substituted amino)-6-demethyl-6-deoxytetracyclines” (American Cyanamid Company, priority 1995, dated 1996).
In brackets after ≈: the same amount, converted by molar mass. Structures can show the parent of a compound that is named as a salt. Where two headings read alike, the source gives them in different places.

Columns and labels:
E. coli UBMS 88-1 (tetB) = assay: microbe, parasite or virus in culture; format: cell-based; settings: Escherichia coli, 18 h
Description: (§1) Method for In Vitro Antibacterial Evaluation (Table I)
(§2) The minimum inhibitory concentration (MIC), the lowest concentration of the antibiotic which inhibits growth of the test organism, is determined by the agar dilution method using Muller-Hinton II agar (Baltimore Biological Laboratories). An inoculum density of 1-5×10^5 CFU/ml and an antibiotic concentration (32-≤0.015 μg/ml) is used. The plates are incubated for 18 hours at 35° C. in a forced air incubator. The test organisms comprise strains sensitive to tetracycline and genetically defined strains that are resistant to tetracycline, due to inability to bind bacterial ribosomes (tetM).

E. coli UBMS 89-1 (tetM) = assay: microbe, parasite or virus in culture; format: cell-based; settings: Escherichia coli, 18 h
Description: as §1, §2

[1] = test system: S. aureus UBMS 88-5 (tetM); assay: microbe, parasite or virus in culture; format: cell-based; settings: Staphylococcus aureus, 18 h
Description: as §1, §2

[2] = test system: S. aureus UBMS 88-7 (tetK); assay: microbe, parasite or virus in culture; format: cell-based; settings: Staphylococcus aureus, 18 h
Description: as §1, §2

[3] = test system: S. aureus UBMS 90-1 (tetM); assay: microbe, parasite or virus in culture; format: cell-based; settings: Staphylococcus aureus, 18 h
Description: as §1, §2

[4] = test system: S. aureus UBMS 90-2 (tetM); assay: microbe, parasite or virus in culture; format: cell-based; settings: Staphylococcus aureus, 18 h
Description: as §1, §2

E. coli ATCC 25922 = assay: In vitro antibacterial evaluation, MIC by agar dilution; format: cell-based; settings: Escherichia coli
Description: as §1, §2

[5] = test system: E. coli UBMS 88-2 (sensitive); assay: as above; format: cell-based; settings: Escherichia coli, 18 h
Description: as §1, §2

[6] = test system: E. coli UBMS 89-2 (sensitive); assay: as above; format: cell-based; settings: Escherichia coli, Muller-Hinton II agar, 18 hours at 35° C.
Description: as §1, §2

Enteroc. spp. 12201 = assay: as above; format: cell-based
Description: as §1, §2

[7] = test system: S. aureus ATCC 29213 (sensitive); assay: as above; format: cell-based; settings: Staphylococcus aureus, ATCC29213; agar dilution, Muller-Hinton II agar, 18 hours at 35° C.; S. aureus ATCC 29213 (sensitive); read-out: MIC
Description: as §1, §2

[8] = test system: S. aureus IVES 1983 (MP) (meth. resistant); assay: as above; format: cell-based; settings: Staphylococcus aureus
Description: as §1, §2

[9] = test system: S. aureus IVES 2943 (meth. resistant); assay: as above; format: cell-based; settings: Staphylococcus aureus
Description: as §1, §2

[10] = test system: S. aureus SMITH (MP) (sensitive); assay: as above; format: cell-based; settings: Staphylococcus aureus
Description: as §1, §2

[11] = test system: S. aureus UBMS 88-4 (sensitive); assay: as above; format: cell-based; settings: Staphylococcus aureus
Description: as §1, §2

S. faecal. ATCC 29212 = assay: as above; format: cell-based
Description: as §1, §2

S. haemol. AVAH 88-3 = assay: as above; format: cell-based
Description: as §1, §2

[12] = test system: S. aureus UBMS 90-3 (sensitive); assay: as above; format: cell-based; settings: Staphylococcus aureus
Description: as §1, §2

[13] = test system: S30 extract from E. coli strain MRE 600 (tetracycline sensitive); assay: E. coli in vitro cell free protein translation system, Wild Type S30; format: biochemical; settings: for % Inhibition Wild Type S30: 35S-methionine incorporation, 30 minutes at 37° C.
Excerpt: (§3) E. coli in Vitro protein Translation System (Table II)
(§4) An in vitro, cell free, protein translation system using extracts from E. coli strain MRE 600 (tetracycline sensitive) and a derivative of MRE 600 containing the tetM determinant has been developed based on literature methods J. M. Pratt, Coupled Transcription-translation in Prokaryotic Cell-free Systems, Transcription and Translation, a Practical Approach, (B. D. Hames and S. J. Higgins, eds) p. 179-209, IRL Press, Oxford-Washington, 1984!.
(§5) Using the system described above, the tetracycline compounds of the present invention are tested for their ability to inhibit protein synthesis in vitro. Briefly, each 10 μl reaction contains S30 extract (a whole extract) made from either tetracycline sensitive cells or an isogenic tetracycline resistant (tetM) strain, low molecular weight components necessary for transcription and translation (i.e., ATP and GTP), a mix of 19 amino acids (no methionine), ^35 S labeled methionine, DNA template (either pBR322 or pUC119), and either DMSO (control) or the novel tetracycline compound to be tested ("novel TC") dissolved in DMSO.
(§6) The reactions are incubated for 30 minutes at 37° C. Timing is initiated with the addition of the S30 extract, the last component to be added. After 30 minutes, 2.5 μl of the reaction is removed and mixed with 0.5 ml of 1N NaOH to destroy RNA and tRNA. Two to three ml of 25% trichloroacetic acid is added and the mixture incubated at room temperature for 15 minutes. The trichloroacetic acid precipitated material is collected on Whatman GF/C filters and washed with a solution of 10% trichloroacetic acid. The filters are dried and the retained radioactivity, representing incorporation of ^35 S-methionine into polypeptides, is counted using standard liquid scintillation methods.
(§7) The percent inhibition (P.I.) of protein synthesis is determined to be: [formula]

[14] = test system: S30 extract from derivative of E. coli MRE 600 containing the tetM determinant; assay: E. coli in vitro cell free protein translation system, TetM S30; format: biochemical; settings: for % Inhibition TetM S30: 35S-methionine incorporation, 30 minutes at 37° C.
Excerpt: as §3, §4, §5, §6, §7

[15] = agar dilution, Muller-Hinton II agar, 18 hours at 35° C., Enteroc. spp. 12201, read-out: MIC
[16] = agar dilution, Muller-Hinton II agar, 18 hours at 35° C., S. aureus SMITH (MP) (sensitive), read-out: MIC
[17] = agar dilution, Muller-Hinton II agar, 18 hours at 35° C., S. faecal. ATCC 29212, read-out: MIC
[18] = agar dilution, Muller-Hinton II agar, 18 hours at 35° C., S. haemol. AVAH 88-3, read-out: MIC
[19] = ATCC25922, agar dilution, Muller-Hinton II agar, 18 hours at 35° C., E. coli ATCC 25922, read-out: MIC
[20] = agar dilution, Muller-Hinton II agar, 18 hours at 35° C., S. aureus UBMS 88-4 (sensitive), read-out: MIC
[21] = agar dilution, Muller-Hinton II agar, 18 hours at 35° C., S. aureus UBMS 90-3 (sensitive), read-out: MIC

Compound | MIC (E. coli UBMS 88-1 (tetB)) [mg/L] | MIC (E. coli UBMS 89-1 (tetM)) [mg/L] | MIC [1] [mg/L] | MIC [2] [mg/L] | MIC [3] [mg/L] | MIC [4] [mg/L] | MIC (E. coli ATCC 25922; ATCC25922, 18 h) [mg/L] | MIC [5] [mg/L] | MIC [6] [mg/L] | MIC (Enteroc. spp. 12201; [15]) [mg/L] | MIC [7] [mg/L] | MIC ([8]; 18 h) [mg/L] | MIC ([9]; 18 h) [mg/L] | MIC [10, 16] [mg/L] | MIC ([11]; 18 h) [mg/L] | MIC (S. faecal. ATCC 29212; [17]) [mg/L] | MIC (S. haemol. AVAH 88-3; [18]) [mg/L] | MIC (E. coli ATCC 25922; [19]) [mg/L] | MIC (S. haemol. AVAH 88-3; 18 h) [mg/L] | MIC (Enteroc. spp. 12201; 18 h) [mg/L] | also measured
CN(C)[C@@H]1C(O)=C(C(N)=O)C(=O)[C@@]2(O)C(O)=C3C(=O)c4c(O)cc(Cl)cc4CC3CC12 (some centres unmarked) [Compound E, 8-Chloro-4-(dimethylamino)-1,4,4a,5,5a,6-11,12a-octahydro-3,10,12,12a-tetrahydroxy-1,11-dioxo-2-naphthacenecarboxamide sulfate] | > 32 | 16 | 2 | 4 | 2 | 1 | 8 | 16 | 16 | 1 | 0.03 | 4 | 4 | 0.12 | 0.25 | 2 | 0.5 | – | – | – | –
CN(C)[C@@H]1C(O)=C(C(N)=O)C(=O)[C@@]2(O)C(O)=C3C(=O)c4c(O)cc(Cl)c([N+]#N)c4CC3CC12 (stereo partly drawn) [D, 8-(Aminocarbonyl)-2-chloro-10-(dimethylamino)-5,6a,10,10a,11,11a,12-octahydro-5,7-dioxo-l-naphthacenediazonium chloride] | > 32 | 32 | 4 | 8 | 4 | 2 | – | 32 | 32 | 2 | 0.12 | – | – | 0.5 | – | 2 | – | 16 | 1 | – | MIC ([8]; agar dilution, Muller-Hinton II agar, 18 hours at 35° C., S. aureus IVES 1983 (MP) (meth. resistant), read-out: MIC): 16 mg/L; MIC ([9]; agar dilution, Muller-Hinton II agar, 18 hours at 35° C., S. aureus IVES 2943 (meth. resistant), read-out: MIC): 16 mg/L
CN(C)[C@@H]1C(O)=C(C(N)=O)C(=O)[C@@]2(O)C(O)=C3C(=O)c4c(cc(Cl)c(N)c4O)CC3CC12 (some centres unmarked) [G, 9-Amino-8-chloro-4-(dimethylamino)-1,4,-4a,5,5a,6,11,12a-octahydro-3,10,12,12a-tetrahydroxy-1,11-dioxo-2-naphthacenecarboxamide] | > 32 | – | 1 (≈ 2.16 µM) | 2 (≈ 4.31 µM) | 1 (≈ 2.16 µM) | 0.25 (≈ 0.539 µM) | 1 (≈ 2.16 µM) | 4 (≈ 8.62 µM) | 4 (≈ 8.62 µM) | – | < 0.015 | 8 (≈ 17.2 µM) | 8 (≈ 17.2 µM) | < 0.015 | – | – | 0.12 (≈ 0.259 µM) | – | – | 2 (≈ 4.31 µM) | MIC [11, 20]: < 0.015 mg/L; MIC [12, 21]: < 0.015 mg/L; MIC (S. faecal. ATCC 29212; 18 h): 0.25 mg/L (≈ 0.539 µM)
COC(=O)Nc1c(Cl)cc2c(c1O)C(=O)C1=C(O)[C@]3(O)C(=O)C(C(N)=O)=C(O)[C@@H](N(C)C)C3CC1C2 (stereo partly drawn) [I, 7S-(7alpha, 10aalpha)!- 9-(Aminocarbonyl)-3-chloro-7-(dimethylamino)-5,5a,6-6a,7,10,10a,12-octahydro-1,8,10a,11-tetrahydroxy-10,12-dioxo-2-naphthacenyl!-carbamic acid methyl ester] | > 32 | 8 (≈ 15.3 µM) | 0.5 (≈ 0.958 µM) | 2 (≈ 3.83 µM) | 0.5 (≈ 0.958 µM) | 0.5 (≈ 0.958 µM) | 8 (≈ 15.3 µM) | – | 16 (≈ 30.7 µM) | – | < 0.015 | 4 (≈ 7.66 µM) | 4 (≈ 7.66 µM) | – | 0.06 (≈ 0.115 µM) | – | – | – | 0.5 (≈ 0.958 µM) | 2 (≈ 3.83 µM) | MIC ([10]; 18 h): 0.06 mg/L (≈ 0.115 µM); MIC ([12]; 18 h): 0.06 mg/L (≈ 0.115 µM); MIC (S. faecal. ATCC 29212; 18 h): 0.5 mg/L (≈ 0.958 µM)
CN(C)c1ccc(O)c2c1C[C@H]1C[C@H]3[C@H](N(C)C)C(O)=C(C(N)=O)C(=O)[C@@]3(O)C(O)=C1C2=O [L, Minocycline hydrochloride, reference compound] | 16 | 8 | 4 | – | 4 | 4 | – | 0.25 | 1 | 8 | ≤ 0.015 | 4 | 4 | 0.03 | – | 1 | – | 0.5 | – | – | MIC [11, 20]: 0.03 mg/L; MIC [12, 21]: 0.03 mg/L; % Inhibition Wild Type S30 ([13]; Conc. 0.1 mg/ml): 66%; % Inhibition Wild Type S30 ([13]; Conc. 0.3 mg/ml, hydrochloride): 91%; % Inhibition Wild Type S30 ([13]; Conc. 1.0 mg/ml): 90%; inhibition of protein synthesis, in words ([13]; cell-free extracts from tetracycline susceptible strain MRE600): inhibited; % Inhibition TetM S30 ([14]; Conc. 0.1 mg/ml): 0%; % Inhibition TetM S30 ([14]; Conc. 0.3 mg/ml): 0%; % Inhibition TetM S30 ([14]; Conc. 1.0 mg/ml, hydrochloride): 19%; % Inhibition TetM S30 ([14]; Conc. 1.0 mg/ml, listed as minocycline, hydrochloride): less than 20%; inhibition of protein synthesis, in words ([14]; cell-free extracts from strain MRE600 (tetM)): resistant
